Experimental findings from patent publication US20260224550A1, “PDE4 DEGRADERS, PHARMACEUTICAL COMPOSITIONS, AND THERAPEUTIC APPLICATIONS” (BioTheryX, Inc., priority 2023, published 2026) are described below.

In one experiment the test system is IFNγ. As to the kind of experiment: Cell-based cytokine inhibition assay (PBMCs, anti-CD3/anti-CD28 stimulated, MSD kit): IFNγ. As to conditions: PBMC, anti-CD3/anti-CD28 stimulation, 23 h with compound, relative to DMSO control. How it is done:
(§1) Frozen primary blood mononuclear cells (PBMCs) were thawed and washed once with RPMI 1640 media supplemented with 10% fetal bovine serum, 1% penicillin, and 1% streptomycin. An anti-CD28 antibody at […] was added to the media as a co-stimulant. PBMCs were plated at 1×10^6 cells per well in a 96-well U bottom plate, which was pre-coated overnight with an anti-CD3 antibody at 1 μg/mL in PBS (100 μL/well). After the place was incubated for 1 h at 37° C. in a CO2 incubator, DMSO (control) or a compound was added. After the place was incubated for 23 h at 37° C. in a CO2 incubator, the cells were spun down at 1,500 rpm for 5 min. Supernatant media was collected for cytokine analysis using an MSD kit. Inhibitory activities of the compound were determined as a percentage of the DMSO control.

A further experiment deals with TNFα. As to the kind of experiment: Cell-based cytokine inhibition assay (PBMCs, anti-CD3/anti-CD28 stimulated, MSD kit): TNFα. As to conditions: PBMC, anti-CD3/anti-CD28 stimulation, 23 h with compound, relative to DMSO control. As to the method: as §1
The test system of a further experiment is IL-10. As to the kind of experiment: Cell-based cytokine inhibition assay (PBMCs, anti-CD3/anti-CD28 stimulated, MSD kit): IL-10. As to conditions: PBMC, anti-CD3/anti-CD28 stimulation, 23 h with compound, relative to DMSO control. How it is done: as §1
Another experiment relates to IL-2. In words: Cell-based cytokine inhibition assay (PBMCs, anti-CD3/anti-CD28 stimulated, MSD kit): IL-2. The settings on record: PBMC, anti-CD3/anti-CD28 stimulation, 23 h with compound, relative to DMSO control. How it is done: as §1
Experiment [1] deals with PDE4D, in particular, PDE4D short isoform. In words: Protein degradation assay in A549 cells (western blot): PDE4D. The format is cell-based. The settings on record: 24 h, same conditions. As to the method: A549 cells were grown in RPMI 1640 media supplemented with 10% fetal bovine serum, streptomycin, and penicillin. The cells were plated in 6-well plates at 300,000 cells/well in the growth media. After overnight incubation, the cells were treated with DMSO (control) or a compound at predetermined concentrations (e.g., 10 nM, 100 nM, 1 μM, 3 μM, or 10 μM) for 24 h at 37° C. under 5% CO2. Whole cell extracts were prepared using an immunoprecipitation (IP) lysis buffer. The cells were washed once in PBS, and the cell pellets were resuspended in the IP lysis buffer and incubated for 15 min on ice. Cells debris was removed by centrifugation and the cleared whole cell lysates were transferred to new tubes for further analysis.
For a western blot analysis, the whole cell protein extracts were separated on 4-12% SDS-polyacrylamide gels, transferred to nitrocellulose, and probed with primary antibodies. Membranes were subsequently washed and probed with IRDYE® secondary antibodies. The signals were detected using an ODYSSEY® Imaging System. The antibodies used in the assay included anti-PDE4B antibody; anti-PDE4D antibodies (top, bottom, and short isoform); β-actin mouse monoclonal antibody; IRDYE® 680RD goat anti-rabbit antibody; and IRDYE® 800CW goat anti-mouse antibody.

With `CCOc1cc([C@@H](CS(C)(=O)=O)N2C(=O)c3ccc(N4CCN(CC5CCN(Cc6ccc(Oc7ccc8c(C9CCC(=O)NC9=O)nn(C)c8c7)cc6)CC5)CC4)cc3C2=O)ccc1OC` (stereo partly drawn) [Compound B002, 5-(4-((1-(4-((3-(2,6-dioxopiperidin-3-yl)-1-methyl-1H-indazol-6-yl)oxy)benzyl)-piperidin-4-yl)methyl)piperazin-1-yl)-2-((S)-1-(3-ethoxy-4-methoxyphenyl)-2-(methylsulfonyl)-ethyl)isoindoline-1,3-dione], the IC50 (as a rule, the concentration at which inhibition is half-maximal) stood at 0.3 nM in the experiment with IFNγ, 0.09 nM with TNFα, 0.2 nM with IL-10 and 0.09 nM in the experiment with IL-2.

Consider `CCOc1cc([C@@H](CS(C)(=O)=O)N2C(=O)c3ccc(N4CCC(C5CCN(Cc6ccc(Oc7ccc8c(C9CCC(=O)NC9=O)nn(C)c8c7)cc6)CC5)CC4)cc3C2=O)ccc1OC` (stereo partly drawn) [Compound B001, 5-(1′-(4-((3-(2,6-dioxopiperidin-3-yl)-1-methyl-1H-indazol-6-yl)oxy)benzyl)-[4,4′-bipiperidin]-1-yl)-2-((S)-1-(3-ethoxy-4-methoxyphenyl)-2-(methylsulfonyl)ethyl)-isoindoline-1,3-dione], for which the IC50 in the experiment with IFNγ was 0.9 nM; in the experiment on TNFα it was 0.3 nM; in the experiment with IL-10 it was 0.3 nM; in the experiment on IL-2 it was 0.2 nM.

On to `CCOc1cc([C@@H](CS(C)(=O)=O)N2C(=O)c3cccc(NC(C)=O)c3C2=O)ccc1OC` [apremilast], for which the “degradation of PDE4D (result in words)” value in experiment [1] is “did not degrade”.
